The structures appear in SMILES notation. Entries after “also recorded” stand apart in the source; their conditions may differ. Marks after values point to notes of the source that are not given here.

Consider one compound from US7090853B2, “Noscapine derivatives as adjuvant compositions and methods of use thereof” (Emory University, priority 1999, dated 2006).

Data set [1] has as its system E.G7-OVA cells. Put plainly: Inhibition of E.G7-OVA tumor growth, i.p. or i.g. dosing. In kind it is in vivo, C57BL/6 mice. The protocol:
C57BL/6 mice were injected subcutaneously in the right flank with 2×10^6 E.G7-OVA cells. Three days later, mice were injected intraperitoneally, every day for three weeks, either with 200 μl saline (n=10), or with 3 mg noscapine dissolved in 200 μl saline (n=10). Third group of mice (n=10) was fed 3 mg noscapine via intragastric (i.g.) intubation using a 1 ml syringe fitted with a 20 gauge stainless steel ball point needle. After three weeks, all mice were sacrificed by cervical dislocation. Tumors were removed and weighed. Tumor weights were individually plotted and comparisons between control and treatment groups were analyzed by the Student's t test.

The subject of data set [2] is human bladder tumors. The conditions noted are these: nude mice; cited from earlier work.
In data set [3] the test system is HL-60 cells. In words: Apoptosis of HL-60 cells, DAPI staining of nuclear chromatin. In kind it is cell-based. The settings on record: for Apoptic Cell Percentage: 24 hours. As for the experimental part: Morphological changes in the nuclear chromatin of HL-60 cells undergoing apoptosis were detected by staining with 4′,6-diamidino-2-phenylindole (DAPI). In brief, 0.5×10^6 to 3×10^6 cells were fixed with 4% glutaraledebyde, 0.2% Triton x-100, in PBS and incubated at room temperature for 10 min., then centrifuged at 1000×g for 10 min., resuspended in 20 μl 0.1% DAPI ethanol. Following 15 min, incubation at room temperature, at 10 μl aliquot was placed on a glass slide, and 400 cells per slide were scored for the incidence of apoptotic chromatin changes with a fluorescence microscope.

For data set [4], the system named is OVA. Put plainly: OVA-specific immune responses of noscapine-treated tumor survivors after OVA in CFA. In kind it is in vivo, B6 mice. The conditions noted are these: for IFNγ / cytokine production by lymph node CD4+ T cells / OVA-specific antibody responses: tumor survivors vs control mice, ELISA. The protocol:
(FIG. 2A) antibody responses were measured by ELISA with OVA coated microtiter plates,
(FIG. 2B) IFNγ production by lymphnode cells was measured by ELlSA by comparison with recombinant IFNγ and
(FIG. 2C) CTL responses were measured using ^51Cr labeled target cells.
Untreated, control B6 mice and noscapine treated mice whose tumors regressed, were injected with OVA in CFA to test whether the tumor had induced tolerance to OVA. […] Moreover, the OVA-specific CTL response of mice that recovered from the tumor was enhanced by 10- to 30-fold compared to the response of non-tumor bearing controls (FIG. 2C) (14).
For orientation: In an ELISA, binding on a coated surface is turned into a signal by an enzyme label.

Data set [5] relates to Hela cells. Put plainly: M phase arrest, alpha-tubulin immunofluorescence and flow cytometry. Format: cell-based. The settings on record: 20 μM Noscapine, 24 hr. As for the experimental part: (§1) Hela cells were grown in DMEM supplemented with 10% fetal calf serum, 1 mM L-glutamine and 1% penicillin/−streptomycin. The tumor cell line E.G7-OVA (H-2^b) [Moore, M. W., et al., Cell 54,777 (1988)] was grown in RPMI 1640 with 10% fetal calf serum, 1% sodium pyruvate, 1 mM L-glutamine, 0.1% gentamycin, 50 μM β-mercaptoethanol. Cells were grown at 37° C. in a 5% CO2 atmosphere. Cell viability was assessed by trypan blue exclusion analysis. Cell numbers were determined using a hemacytometer. C57BL/6(H-2^b) mice, 8 to 12 weeks of age, were obtained from Harian Sprague Dawley, Inc. (Indiananapolis, Ind.). Mice were maintained on standard laboratory chow and water ad libitum in a temperature and light controlled environment. For immunofluorescence, both Hela and thymocyte cells were treated identically except the Hela cells were grown onto glass coverslips while EL4 thymocytes were put on glass coverslips after fixation. Cells in 10 ml medium were incubated with 2 μl DMSO or 20 μM Noscapine (2 μl 0.1 M DMSO solution) respectively. After 24 hr, cells were fixed with cold (−20° C.) methanol for 5 min., then rehydrated by PBS for 1 min. Nonspecific sites were blocked by incubating with 200 μl of 1% bovine serum albumin (BSA) in phosphate buffered saline (PBS) at 37° C. for 15 minutes. […] Cells were examined with a fluorescence microscope. […] The samples were read on a cytometer.
For orientation: In flow cytometry, cells or beads pass a laser one at a time.

Data set [6] has as its system EL4 thymocytes. Described as above. The conditions noted are these: thymocyte cells, 20 μM Noscapine, 24 hr. In kind it is cell-based. As for the experimental part:
as §1

Data set [7] can be described thus: Histology and general toxicity in noscapine-treated mice. Format: in vivo, B6 mice. As for the experimental part:
FIGS. 3A–3I show B6 mice were injected subcutaneously with 2×10^6 E.G7-OVA tumor cells and after three days half of the mice were treated continuously with 1.5 or 3.0 mg noscapine/ml of drinking water. All of the untreated mice developed tumors and were euthanized after three weeks. […] Normal B6 mice (A–C) and mice treated for 3 months with noscapine (D–F) were euthanized.
FIGS. 4A–4D show B6 mice were treated with 1.5 mg noscapine/ml in their drinking water or acidified water, as a negative control. One week later mice were injected with OVA in CFA. Mice were sacrificed two weeks later. […] Thus, Noscapine had no detectable toxic effect on lymphoid cells that are proliferating in response to immunization. […] The response of the gut to Noscapine is one of mild irritation. […]

Regarding `COc1ccc2c(c1OC)C(=O)O[C@@H]2[C@H]1c2c(cc3c(c2OC)OCO3)CCN1C` [Noscapine], the tumor weight entry in data set [1] (3 mg noscapine i.p. or i.g. every day for three weeks, vs saline) was “significantly reduced tumor weight”. Also, the “tumor cell growth and apoptosis of E.G7-OVA in vivo” value in data set [1] (given parenterally or by gastric gavage) was “arrested tumor cell growth and induced apoptosis”. Also, the “regression of human bladder tumors” value in data set [2] is “caused regression”. The “Apoptic Cell Percentage” value in data set [3] (20 μM in DMSO, two trials, result for each trial shown) is reported as 30.17† %; in data set [3] (50 μM in DMSO) it was 27%. Further, in data set [3] (DAPI staining), the Initiation of apoptosis result is reported as “initiate apoptosis”. In addition, the “CTL responses after immunization with OVA in CFA” value in data set [4] (tumor survivors treated with Noscapine vs control mice, 51Cr labeled target cells) is listed as “enhanced”. For the same compound, the “IFNγ / cytokine production by lymph node CD4+ T cells” value in data set [4] is on record as “indistinguishable from control mice”; in data set [4] (listed as noscapine), “identical”. The OVA-specific antibody responses result in data set [4] was “indistinguishable from control mice”; in data set [4] (listed as noscapine), “identical”. Further, the “M phase arrest of microtubule arrays” value in data set [5] and in data set [6] was “arrested in M phase” throughout. For the same compound, the “histology of small intestine” value in data set [7] (1.5 mg noscapine/ml drinking water vs acidified water) is “mild edema of the villi and goblet cell hyperplasia; also recorded: edema, increased frequency of goblet cells, and prominent crypt cells”. For the same compound, in data set [7] (1.5 mg noscapine/ml drinking water vs acidified water, immunized with OVA in CFA), the “histology of spleen / lymph nodes” value is “no alterations from control mice; also recorded: no significant differences”. The liver inflammation result in data set [7] (3.0 mg dose of noscapine) is on record as “few small areas of inflammation”. Also, the “histological evidence of toxicity to the kidney, liver, or heart” value in data set [7] (mouse, in vivo) was “no significant histological evidence of toxicity”. The “health, body weight and appearance” value in data set [7] (noscapine in drinking water) is “healthy and had normal weights and appearance; also recorded: healthy and of the same weight as the control mice”. Besides, the “number of mitotic figures in the crypts of the small intestine” value in data set [7] (noscapine in drinking water vs control mice) is on record as “approximately equal”. Moreover, the “histology of heart, kidney and liver” value in data set [7] (treated for 3 months with noscapine in drinking water, H & E) is “no significant differences”.
